{"source": "PubChem BioAssay (NCI)", "test_in_all_cases": "NCI tumour cell line growth inhibition, 48 h", "key": {"[1]": {"system": "KM20L2 colon"}, "[2]": {"system": "DMS 114 small cell lung"}, "[3]": {"system": "DLD-1 colon"}, "[4]": {"system": "LXFL 529 NSCLC"}, "[5]": {"system": "RXF-631 renal"}, "[6]": {"system": "P388 leukemia"}, "[7]": {"system": "SN12K1 renal"}, "[8]": {"system": "P388/ADR leukemia"}, "[9]": {"system": "XF 498 CNS"}}, "note": "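Following 48 hours of exposure in 96-well plates, responses at five concentrations were used to interpolate endpoints linearly. TGI: concentration producing complete growth inhibition.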", "data": [{"compound": "CS(=O)(=O)OCc1c(O)c2c(c(O)c1COS(C)(=O)=O)C(=O)C=CC2=O", "values": [{"measurement": "TGI", "setting": "[1]", "result": "> 100", "unit": "µM"}, {"measurement": "TGI", "setting": "[2]", "result": "> 100", "unit": "µM"}, {"measurement": "TGI", "setting": "[3]", "result": "> 100", "unit": "µM"}, {"measurement": "TGI", "setting": "[4]", "result": "> 100", "unit": "µM"}, {"measurement": "TGI", "setting": "[5]", "result": "> 100", "unit": "µM"}]}, {"compound": "CCCC(=O)OCC(O)CO", "note": "(stereo not given)", "values": [{"measurement": "TGI", "setting": "[2]", "result": "> 5000", "unit": "µM"}, {"measurement": "TGI", "setting": "[3]", "result": "> 5000", "unit": "µM"}, {"measurement": "TGI", "setting": "[4]", "result": "> 5000", "unit": "µM"}]}, {"compound": "NC1=NS(=O)(=O)Nc2nc(-c3cccs3)[nH]c21", "values": [{"measurement": "TGI", "setting": "[1]", "result": "> 100", "unit": "µM"}, {"measurement": "TGI", "setting": "[3]", "result": "> 100", "unit": "µM"}, {"measurement": "TGI", "setting": "[4]", "result": "> 100", "unit": "µM"}]}, {"compound": "FC(F)(F)C1=NC(=NNc2nnc(-c3ccccc3)c(-c3ccccc3)n2)N=C(C(F)(F)F)C1", "values": [{"measurement": "TGI", "setting": "[1]", "result": "> 100", "unit": "µM"}, {"measurement": "TGI", "setting": "[6]", "result": "> 47.5", "unit": "µM"}, {"measurement": "TGI", "setting": "[2]", "result": 28.2, "unit": "µM"}, {"measurement": "TGI", "setting": "[3]", "result": "> 100", "unit": "µM"}, {"measurement": "TGI", "setting": "[7]", "result": "> 100", "unit": "µM"}, {"measurement": "TGI", "setting": "[8]", "result": "> 100", "unit": "µM"}, {"measurement": "TGI", "setting": "[9]", "result": "> 88.5", "unit": "µM"}]}, {"compound": "COc1c2ccoc2c(S(=O)(=O)Nc2ccc(Cl)cc2)c2oc(C)cc(=O)c12", "values": [{"measurement": "TGI", "setting": "[1]", "result": "> 100", "unit": "µM"}, {"measurement": "TGI", "setting": "[6]", "result": "> 100", "unit": "µM"}, {"measurement": "TGI", "setting": "[2]", "result": "> 100", "unit": "µM"}, {"measurement": "TGI", "setting": "[3]", "result": "> 100", "unit": "µM"}, {"measurement": "TGI", "setting": "[7]", "result": "> 100", "unit": "µM"}, {"measurement": "TGI", "setting": "[8]", "result": "> 100", "unit": "µM"}, {"measurement": "TGI", "setting": "[9]", "result": "> 100", "unit": "µM"}]}]}
